# Assay results: the supplement of paper PMC10307832
# Key:
# Assay in all cases: relative viability (nuclei count vs DMSO), 5 days (fraction); higher = more cells survive
# [1] = compound: O=C(CCCCCCC(=O)Nc1ccccc1)NO [Vorinostat] + C[C@@H](Oc1cc(-c2cnn(C3CCNCC3)c2)cnc1N)c1c(Cl)ccc(F)c1Cl [Crizotinib] (partner 1 µM)
# Summary of the method: (§1)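 Lung cancer cell lines were pin-tool dosed in 1536-well plates on the day after seeding, with either a lone drug or a fixed anchor-drug dose plus five library-drug doses (not always all listed) in √10 steps. Nuclei were counted on 4× images after 5 days. Relative viability is the ratio of treated-well to vehicle-well nuclei counts, with each value a median of duplicate plates.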
# [2] = compound: O=C(CCCCCCC(=O)Nc1ccccc1)NO [Vorinostat] + Nc1nc2[nH]cc(CCc3ccc(C(=O)N[C@@H](CCC(=O)O)C(=O)O)cc3)c2c(=O)[nH]1 [Pemetrexed] (partner 0.2 µM)
# Summary of the method: as §1
# [3] = compound: O=C(CCCCCCC(=O)Nc1ccccc1)NO [Vorinostat] + CC(=O)c1c(C)c2cnc(Nc3ccc(N4CCNCC4)cn3)nc2n(C2CCCC2)c1=O [Palbociclib] (partner 0.5 µM)
# Summary of the method: as §1
# [4] = compound: O=C(CCCCCCC(=O)Nc1ccccc1)NO [Vorinostat] + Cc1cc(Nc2cc(N3CCN(C)CC3)nc(Sc3ccc(NC(=O)C4CC4)cc3)n2)n[nH]1 [Tozasertib] (partner 0.1 µM)
# Summary of the method: as §1
# [5] = compound: O=C(CCCCCCC(=O)Nc1ccccc1)NO [Vorinostat] + NC(=O)Nc1cc(-c2cccc(F)c2)sc1C(=O)N[C@H]1CCCNC1 [AZD7762] (partner 0.2 µM)
# Summary of the method: as §1
Cell Line,relative viability ([1]; first compound 0.253 µM),relative viability ([1]; first compound 0.8 µM),relative viability ([1]; first compound 2.53 µM),relative viability ([1]; first compound 8 µM),relative viability ([2]; first compound 0.253 µM),relative viability ([2]; first compound 0.8 µM),relative viability ([2]; first compound 2.53 µM),relative viability ([2]; first compound 8 µM),relative viability ([3]; first compound 0.253 µM),relative viability ([3]; first compound 0.8 µM),relative viability ([3]; first compound 2.53 µM),relative viability ([3]; first compound 8 µM),relative viability ([4]; first compound 0.253 µM),relative viability ([4]; first compound 0.8 µM),relative viability ([4]; first compound 2.53 µM),relative viability ([4]; first compound 8 µM),relative viability ([5]; first compound 0.253 µM),relative viability ([5]; first compound 0.8 µM),relative viability ([5]; first compound 2.53 µM),relative viability ([5]; first compound 8 µM)
H3255,1.02,0.817,0.411,0.225,0.656,0.573,0.56,0.289,0.349,0.337,0.303,0.232,0.705,0.525,0.277,0.219,0.989,0.923,0.507,0.279
NCI-H838,0.986,0.76,0.241,0.105,0.258,0.269,0.19,0.167,0.262,0.218,0.183,0.116,0.263,0.227,0.172,0.111,0.998,1,0.628,0.609
EMC-BAC-2,0.817,0.558,0.166,0.107,0.377,0.368,0.26,0.208,0.49,0.425,0.254,0.203,0.199,0.202,0.149,0.144,1.02,0.653,0.447,0.174
NCI-H1793,–,–,–,–,1.26,0.869,0.654,0.175,0.283,0.279,0.213,0.159,0.316,0.256,0.179,0.125,0.188,0.492,0.204,0.131
NCI-H441,0.722,0.776,0.141,0.11,0.252,0.232,0.253,0.143,0.241,0.249,0.157,0.101,0.607,0.529,0.3,0.194,1.21,0.903,0.238,0.122
NCI-H3122,0.311,0.317,0.227,0.198,0.199,0.199,0.174,0.0738,0.19,0.254,0.142,0.0743,0.387,0.294,0.0525,0.0914,1.17,1.06,0.246,0.0864
NCI-H1651,0.846,0.786,0.232,0.097,0.614,0.577,0.377,0.0787,0.545,0.494,0.154,0.0594,0.609,0.326,0.153,0.0653,0.308,0.45,0.22,0.0691
NCI-H1734,0.779,0.683,0.214,0.127,0.44,0.413,0.408,0.131,0.402,0.34,0.253,0.133,0.258,0.229,0.162,0.133,0.306,0.292,0.162,0.0959
ABC-1,1.11,0.383,0.131,0.0777,–,–,–,–,0.696,0.563,0.344,0.137,0.203,0.198,0.18,0.112,0.875,0.587,0.309,0.125
SK-LU-1,0.921,0.672,0.43,0.164,0.936,0.807,0.64,0.179,0.438,0.363,0.32,0.177,0.303,0.186,0.143,0.101,–,–,–,–
NCI-H322M,0.888,0.758,0.447,0.194,0.764,0.603,0.569,0.355,0.487,0.445,0.418,0.356,0.51,0.496,0.381,0.298,0.56,0.565,0.408,0.304
SW 900,–,–,–,–,0.502,0.483,0.308,0.147,0.513,0.526,0.219,0.136,0.584,0.315,0.213,0.113,0.606,0.418,0.229,0.0892
NCI-H2342,–,–,–,–,0.834,0.832,0.68,0.306,0.529,0.502,0.58,0.488,0.436,0.322,0.335,0.262,0.431,0.575,0.347,0.254
SK-MES-1,1.13,1.06,0.495,0.157,1.08,1.07,0.553,0.207,0.377,0.453,0.418,0.222,0.86,0.662,0.235,0.136,–,–,–,–
